Reference: patent US20230114728A1 (Venatorx Pharmaceuticals, Inc., priority 2019, published 2023)
≈ marks a conversion by molar mass, not a printed value.

Columns and labels:
N. gonorrhoeae PBP2 = target: T1, N. gonorrhoeae PBP2 (Neisseria gonorrhoeae, UniProt P08149); experiment: Bocillin-FL fluorescence polarization competition binding assay, N. gonorrhoeae PBP2; conditions: fluorescence polarization competition binding assay using Bocillin-FL; read-out: N. gonorrhoeae PBP2 Potency
T1 construct: made in house
In short: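 Fluorescence polarization (ex 490/em 520 nm) competition of inhibitors against Bocillin-FL at 0.1 μM, read up to 60 min. Final PBP levels: E. coli PBP3 1.5 μM; A. baumannii PBP2 2.5 μM, PBP3 0.2 μM in Tris pH 8.0/NaCl/glycerol/Tween 20; N. gonorrhoeae PBP2 […] in Hepes pH 8.0/NaCl/glycerol. EC50 = concentration halving PBP-bound Bocillin-FL.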

A. baumannii PBP1a = A. baumannii PBP1a (Acinetobacter baumannii, UniProt A0ABX6CK30); experiment: Bocillin-FL fluorescence polarization competition binding assay, A. baumannii PBP1a; conditions: fluorescence polarization competition binding assay using Bocillin-FL; column 1; read-out: A. baumannii PBP1a Potency
[1] = system: A. baumannii IL123 (ABΔ3-ARAEcPore); experiment: Broth microdilution MIC in iron-depleted CAMHB (IDM); type: cell-based; conditions: Acinetobacter baumannii, read-out: Minimum Inhibitory Concentration, IL-2123
In short: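 CLSI broth microdilution in Chelex-treated cation-adjusted Mueller-Hinton broth, refortified with Ca, Mg and 10 μM ZnSO4, pH 7.3. Inoculum 2-8×10^5 CFU/mL; 37 °C for 16-20 h (Pseudomonas) or 20-24 h (Acinetobacter). MIC read visually as lowest concentration without growth.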

T1 sequence (P08149 whole entry): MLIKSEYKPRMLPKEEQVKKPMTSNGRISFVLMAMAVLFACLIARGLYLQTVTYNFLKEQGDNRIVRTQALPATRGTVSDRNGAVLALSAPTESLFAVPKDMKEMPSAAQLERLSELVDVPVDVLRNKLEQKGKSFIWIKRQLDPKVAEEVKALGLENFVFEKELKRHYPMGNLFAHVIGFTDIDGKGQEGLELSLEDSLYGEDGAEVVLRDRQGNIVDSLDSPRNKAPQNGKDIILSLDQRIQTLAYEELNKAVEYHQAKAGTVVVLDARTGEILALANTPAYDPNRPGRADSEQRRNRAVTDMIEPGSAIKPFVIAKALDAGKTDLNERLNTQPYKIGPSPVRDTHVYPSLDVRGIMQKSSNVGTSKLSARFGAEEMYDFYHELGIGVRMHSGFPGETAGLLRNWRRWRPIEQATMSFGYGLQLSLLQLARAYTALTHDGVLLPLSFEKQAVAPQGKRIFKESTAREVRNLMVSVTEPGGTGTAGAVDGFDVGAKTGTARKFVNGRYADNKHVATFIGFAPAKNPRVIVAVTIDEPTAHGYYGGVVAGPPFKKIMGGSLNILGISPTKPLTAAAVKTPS
A. baumannii PBP1a, sequence (A0ABX6CK30 entry or part of it): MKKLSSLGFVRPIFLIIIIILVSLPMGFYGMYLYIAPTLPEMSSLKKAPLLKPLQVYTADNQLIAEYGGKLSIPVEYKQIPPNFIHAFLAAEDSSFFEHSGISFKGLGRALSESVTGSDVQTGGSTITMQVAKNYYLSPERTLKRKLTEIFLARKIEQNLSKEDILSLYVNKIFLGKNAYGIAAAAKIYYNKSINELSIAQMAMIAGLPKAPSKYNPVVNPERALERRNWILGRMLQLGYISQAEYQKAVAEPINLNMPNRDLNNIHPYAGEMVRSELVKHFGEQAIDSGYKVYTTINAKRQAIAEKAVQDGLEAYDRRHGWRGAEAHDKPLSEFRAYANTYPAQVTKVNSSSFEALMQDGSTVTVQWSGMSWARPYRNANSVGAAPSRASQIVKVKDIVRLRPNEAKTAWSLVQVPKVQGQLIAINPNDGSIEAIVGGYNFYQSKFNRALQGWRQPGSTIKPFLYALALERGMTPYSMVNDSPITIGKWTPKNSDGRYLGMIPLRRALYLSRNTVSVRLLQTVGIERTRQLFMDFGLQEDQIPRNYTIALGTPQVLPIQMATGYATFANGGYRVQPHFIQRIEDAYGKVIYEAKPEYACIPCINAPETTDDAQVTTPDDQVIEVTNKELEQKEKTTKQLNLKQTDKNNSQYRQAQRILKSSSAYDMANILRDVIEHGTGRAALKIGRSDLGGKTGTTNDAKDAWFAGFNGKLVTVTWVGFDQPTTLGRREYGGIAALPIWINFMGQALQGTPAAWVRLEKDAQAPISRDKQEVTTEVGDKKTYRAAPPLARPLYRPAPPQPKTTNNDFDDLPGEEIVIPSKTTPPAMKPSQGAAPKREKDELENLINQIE

Structure (SMILES)	EC50 (N. gonorrhoeae PBP2) [µM]	EC50 (A. baumannii PBP1a) [µM]	MIC [1] [µg/mL]
CCN1CCN(C(=O)NC(C(=O)N[C@H]2Cc3cccc(C(=O)O)c3OB2O)c2cc([N+](=O)[O-])c(O)cc2F)C(=O)C1=O (stereo partly drawn) [Example 184, (3R)-3-(2-(4-ethyl-2,3-dioxopiperazine-1-carboxamido)-2-(2-fluoro-4-hydroxy-5-nitrophenyl)acetamido)-2-hydroxy-3,4-dihydro-2H-benzo[e][1,2]oxaborinine-8-carboxylic acid]	< 10	–	–
CCN1CCN(C(=O)N[C@H](C(=O)N[C@H]2Cc3cccc(C(=O)O)c3OB2O)c2ccc(C(=O)O)c(F)c2Cl)C(=O)C1=O (single isomer, unassigned) [Example 202]	> 100	–	–
O=C(NCCCN1CCN(C(=O)NC(C(=O)N[C@H]2Cc3ccc(F)c(C(=O)O)c3OB2O)c2ncc(O)cc2F)C(=O)C1=O)c1ccc(O)c(O)c1Cl (stereo partly drawn) [Example 3, (3R)-3-(2-(4-(3-(2-chloro-3,4-dihydroxybenzamido)propyl)-2,3-dioxopiperazine-1-carboxamido)-2-(3-fluoro-5-hydroxypyridin-2-yl)acetamido)-7-fluoro-2-hydroxy-3,4-dihydro-2H-benzo[e][1,2]oxaborinine-8-carboxylic acid]	–	30 to 100	–
O=C(NCCCN1CCN(C(=O)NC(C(=O)N[C@H]2Cc3cccc(C(=O)O)c3OB2O)c2ncc(O)cc2F)C(=O)C1=O)c1ccc(O)c(O)c1Cl (stereo partly drawn) [Example 1, (3R)-3-(2-(4-(3-(2-chloro-3,4-dihydroxybenzamido)propyl)-2,3-dioxopiperazine-1-carboxamido)-2-(3-fluoro-5-hydroxypyridin-2-yl)acetamido)-2-hydroxy-3,4-dihydro-2H-benzo[e][1,2]oxaborinine-8-carboxylic acid]	–	10 to 30	0.5 to 1 (≈ 0.673 to 1.35 µM)
CCN1CCN(C(=O)NC(C(=O)N[C@H]2Cc3cccc(C(=O)O)c3OB2O)c2c(F)cc(NC(C)=O)cc2F)C(=O)C1=O (stereo partly drawn) [Example 188, (3R)-3-(2-(4-acetamido-2,6-difluorophenyl)-2-(4-ethyl-2,3-dioxopiperazine-1-carboxamido)acetamido)-2-hydroxy-3,4-dihydro-2H-benzo[e][1,2]oxaborinine-8-carboxylic acid]	< 10	–	–
NCCN1CCN(C(=O)N[C@@H](C(=O)N[C@H]2Cc3cccc(C(=O)O)c3OB2O)c2c(O)cc(O)cc2F)C(=O)C1=O (single isomer, unassigned) [Example 194]	30 to 100	–	–
CCN1CCN(C(=O)N[C@@H](C(=O)N[C@H]2Cc3cc(Cl)c(F)c(C(=O)O)c3OB2O)c2c(F)cc(O)c(O)c2Cl)C(=O)C1=O [Example 191, (R)-6-chloro-3-((R)-2-(2-chloro-6-fluoro-3,4-dihydroxyphenyl)-2-(4-ethyl-2,3-dioxopiperazine-1-carboxamido)acetamido)-7-fluoro-2-hydroxy-3,4-dihydro-2H-benzo[e][1,2]oxaborinine-8-carboxylic acid]	30 to 100	> 100	–
NCCN1CCN(C(=O)N[C@@H](C(=O)N[C@H]2Cc3cccc(C(=O)O)c3OB2O)c2ccc(O)c(Cl)c2F)C(=O)C1=O (single isomer, unassigned) [Example 186]	< 10	–	–
NCCCN1CCN(C(=O)N[C@@H](C(=O)N[C@H]2Cc3cccc(C(=O)O)c3OB2O)c2c(O)cc(O)cc2F)C(=O)C1=O (single isomer, unassigned) [Example 195]	10 to 30	–	–
Nc1nc(/C(=N/OC[C@H](NC(=O)c2ccc(O)c(O)c2Cl)C(=O)O)C(=O)N[C@H]2Cc3cccc(C(=O)O)c3OB2O)cs1 [Example 6, (R)-3-((Z)-2-(2-aminothiazol-4-yl)-2-(((S)-2-carboxy-2-(2-chloro-3,4-dihydroxybenzamido)ethoxy)imino)acetamido)-2-hydroxy-3,4-dihydro-2H-benzo[e][1,2]oxaborinine-8-carboxylic acid]	–	–	32 to 64 (≈ 50.5 to 101 µM)
CCN1CCN(C(=O)NC(C(=O)N[C@H]2Cc3cccc(C(=O)O)c3OB2O)c2ccc(C(=O)O)c(O)c2)C(=O)C1=O (stereo partly drawn) [Example 196, (3R)-3-(2-(4-carboxy-3-hydroxyphenyl)-2-(4-ethyl-2,3-dioxopiperazine-1-carboxamido)acetamido)-2-hydroxy-3,4-dihydro-2H-benzo[e][1,2]oxaborinine-8-carboxylic acid]	< 10	–	–
O=C(O)c1cccc2c1OB(O)[C@@H](NC(=O)C(NC(=O)N1CCN(CC3CNC3)C(=O)C1=O)c1c(F)cc(O)cc1F)C2 (stereo partly drawn) [Example 193, (3R)-3-(2-(4-(azetidin-3-ylmethyl)-2,3-dioxopiperazine-1-carboxamido)-2-(2,6-difluoro-4-hydroxyphenyl)acetamido)-2-hydroxy-3,4-dihydro-2H-benzo[e][1,2]oxaborinine-8-carboxylic acid]	10 to 30	–	–
NCCN1CCN(C(=O)N[C@H](C(=O)N[C@H]2Cc3cccc(C(=O)O)c3OB2O)c2ccc(O)c(Cl)c2F)C(=O)C1=O (single isomer, unassigned) [Example 187]	10 to 30	–	–
Nc1nc(C(NC(=O)N2CCN(CCNC(=O)c3ccc(O)c(O)c3Cl)C(=O)C2=O)C(=O)N[C@H]2Cc3ccc(F)c(C(=O)O)c3OB2O)c(F)s1 (stereo partly drawn) [Example 4, (3R)-3-(2-(2-amino-5-fluorothiazol-4-yl)-2-(4-(2-(2-chloro-3,4-dihydroxybenzamido)ethyl)-2,3-dioxopiperazine-1-carboxamido)acetamido)-7-fluoro-2-hydroxy-3,4-dihydro-2H-benzo[e][1,2]oxaborinine-8-carboxylic acid]	–	–	32 to 64 (≈ 42.6 to 85.1 µM)
NCCN1CCN(C(=O)N[C@@H](C(=O)N[C@H]2Cc3cccc(C(=O)O)c3OB2O)c2ccc(O)c([N+](=O)[O-])c2)C(=O)C1=O (single isomer, unassigned) [Example 199]	10 to 30	–	–
CCN1CCN(C(=O)NC(C(=O)N[C@H]2Cc3cccc(C(=O)O)c3OB2O)c2cc(C#N)c(OC)cc2F)C(=O)C1=O (stereo partly drawn) [Example 192, (3R)-3-(2-(5-cyano-2-fluoro-4-methoxyphenyl)-2-(4-ethyl-2,3-dioxopiperazine-1-carboxamido)acetamido)-2-hydroxy-3,4-dihydro-2H-benzo[e][1,2]oxaborinine-8-carboxylic acid]	10 to 30	–	–
C[C@H]1CN(CCNC(=O)c2ccc(O)c(O)c2Cl)C(=O)C(=O)N1C(=O)NC(C(=O)N[C@H]1Cc2cccc(C(=O)O)c2OB1O)c1ncc(O)cc1F (stereo partly drawn) [Example 2, (3R)-3-(2-((S)-4-(2-(2-chloro-3,4-dihydroxybenzamido)ethyl)-6-methyl-2,3-dioxopiperazine-1-carboxamido)-2-(3-fluoro-5-hydroxypyridin-2-yl)acetamido)-2-hydroxy-3,4-dihydro-2H-benzo[e][1,2]oxaborinine-8-carboxylic acid]	–	10 to 30	–
CCN1CCN(C(=O)NC(C(=O)N[C@H]2Cc3cccc(C(=O)O)c3OB2O)c2ccc(O)c(Cl)c2F)C(=O)C1=O (stereo partly drawn) [Example 185, (3R)-3-(2-(3-chloro-2-fluoro-4-hydroxyphenyl)-2-(4-ethyl-2,3-dioxopiperazine-1-carboxamido)acetamido)-2-hydroxy-3,4-dihydro-2H-benzo[e][1,2]oxaborinine-8-carboxylic acid]	< 10	–	–
NCCCN1CCN(C(=O)NC(C(=O)N[C@H]2Cc3cccc(C(=O)O)c3OB2O)c2c(F)cc(O)cc2F)C(=O)C1=O (stereo partly drawn) [Example 183, (3R)-3-(2-(4-(3-aminopropyl)-2,3-dioxopiperazine-1-carboxamido)-2-(2,6-difluoro-4-hydroxyphenyl)acetamido)-2-hydroxy-3,4-dihydro-2H-benzo[e][1,2]oxaborinine-8-carboxylic acid]	< 10	–	–
NCCN1CCN(C(=O)N[C@H](C(=O)N[C@H]2Cc3cccc(C(=O)O)c3OB2O)c2ccc(O)c([N+](=O)[O-])c2)C(=O)C1=O (single isomer, unassigned) [Example 200]	> 100	–	–
CCN1CCN(C(=O)NC(C(=O)N[C@H]2Cc3cccc(C(=O)O)c3OB2O)c2ccc(C(=O)O)c(Cl)c2Cl)C(=O)C1=O (stereo partly drawn) [Example 201, (3R)-3-(2-(4-carboxy-2,3-dichlorophenyl)-2-(4-ethyl-2,3-dioxopiperazine-1-carboxamido)acetamido)-2-hydroxy-3,4-dihydro-2H-benzo[e][1,2]oxaborinine-8-carboxylic acid]	10 to 30	–	–
CCN1CCN(C(=O)N[C@@H](C(=O)N[C@H]2Cc3cccc(C(=O)O)c3OB2O)c2ccc(C(=O)O)c(F)c2Cl)C(=O)C1=O (single isomer, unassigned) [Example 203]	< 10	–	–
CS(=O)(=O)N1CCN(C(=O)N[C@@H](C(=O)N[C@H]2Cc3ccc(F)c(C(=O)O)c3OB2O)c2cc(F)c(O)c(O)c2Cl)C1=O (single isomer, unassigned) [Example 189]	10 to 30	> 100	–
NCCCN1CCN(C(=O)N[C@@H](C(=O)N[C@H]2Cc3cc(Cl)c(F)c(C(=O)O)c3OB2O)c2c(F)cc(O)c(O)c2Cl)C(=O)C1=O [Example 190, (R)-3-((R)-2-(4-(3-aminopropyl)-2,3-dioxopiperazine-1-carboxamido)-2-(2-chloro-6-fluoro-3,4-dihydroxyphenyl)acetamido)-6-chloro-7-fluoro-2-hydroxy-3,4-dihydro-2H-benzo[e][1,2]oxaborinine-8-carboxylic acid]	> 100	> 100	–
CCN1CCN(C(=O)N[C@@H](C(=O)N[C@H]2Cc3cccc(C(=O)O)c3OB2O)c2c(O)cc(O)cc2F)C(=O)C1=O (single isomer, unassigned) [Example 182]	> 100	> 100	–
